Experimental data taken from ChEMBL document CHEMBL1137477, “Preparation and in vitro anti-staphylococcal activity of novel 11-deoxy-11-hydroxyiminorifamycins” (2007).
≈ marks a conversion by molar mass, not a printed value.

What was measured:
Assay type in all cases: functional
Staphylococcus aureus [1] = assay: Antibacterial activity against rifamycin-sensitive Staphylococcus aureus CB190 ATCC 29213
Staphylococcus aureus [2] = assay: Antibacterial activity against rifamycin-resistance Staphylococcus aureus CB372
Staphylococcus aureus [3] = assay: Antibacterial activity against rifamycin-resistance Staphylococcus aureus CB370

Row | SMILES | MIC (Staphylococcus aureus [1]) [mg/L] | MIC (Staphylococcus aureus [2]) [mg/L] | MIC (Staphylococcus aureus [3]) [mg/L]
1 | CO[C@H]1/C=C/O[C@@]2(C)Oc3c(C)c(O)c4c(=O)c(c5oc6cc(N7CCN(CC(C)C)CC7)cc(O)c6nc-5c4c3/C2=N/O)NC(=O)/C(C)=C\C=C\[C@H](C)[C@H](O)[C@@H](C)[C@@H](O)[C@@H](C)[C@H](OC(C)=O)[C@@H]1C | 0.004 (≈ 0.00418 µM) | 2 (≈ 2.09 µM) | 32 (≈ 33.5 µM)
2 | CCCCN1CCN(c2cc(O)c3nc4c5c6c7c(C)c(O)c5c(=O)c(c-4oc3c2)NC(=O)/C(C)=C\C=C\[C@H](C)[C@H](O)[C@@H](C)[C@@H](O)[C@@H](C)[C@H](OC(C)=O)[C@H](C)[C@@H](OC)/C=C/O[C@@](C)(O7)/C6=N\O)CC1 | 0.004 (≈ 0.00418 µM) | 2 (≈ 2.09 µM) | 16 (≈ 16.7 µM)
3 | CO[C@H]1/C=C/O[C@@]2(C)Oc3c(C)c(O)c4c(c3/C2=N/O)C(=O)C=C(NC(=O)/C(C)=C\C=C\[C@H](C)[C@H](O)[C@@H](C)[C@@H](O)[C@@H](C)[C@H](OC(C)=O)[C@@H]1C)C4=O | 0.002 (≈ 0.00281 µM) | 0.5 (≈ 0.703 µM) | 32 (≈ 45 µM)
4 | CO[C@H]1/C=C/O[C@@]2(C)Oc3c(C)c(O)c4c(=O)c(c5oc6cc(N7CCN(C(C)C)CC7)cc(O)c6nc-5c4c3/C2=N/O)NC(=O)/C(C)=C\C=C\[C@H](C)[C@H](O)[C@@H](C)[C@@H](O)[C@@H](C)[C@H](OC(C)=O)[C@@H]1C | 0.008 (≈ 0.00849 µM) | 1 (≈ 1.06 µM) | 32 (≈ 34 µM)
5 | CO[C@H]1/C=C/O[C@@]2(C)Oc3c(C)c(O)c4c(O)c(cc(O)c4c3C2=O)NC(=O)/C(C)=C\C=C\[C@H](C)[C@H](O)[C@@H](C)[C@@H](O)[C@@H](C)[C@H](OC(C)=O)[C@@H]1C [RIFAMYCIN] | 0.016 (≈ 0.0229 µM) | 2 (≈ 2.87 µM) | > 64
6 | CO[C@H]1/C=C/O[C@@]2(C)Oc3c(C)c(O)c4c(=O)c(c5oc6cc(N7CCN(CC8CCCCC8)CC7)ccc6nc-5c4c3/C2=N/O)NC(=O)/C(C)=C\C=C\[C@H](C)[C@H](O)[C@@H](C)[C@@H](O)[C@@H](C)[C@H](OC(C)=O)[C@@H]1C | 0.008 (≈ 0.00816 µM) | 2 (≈ 2.04 µM) | 16 (≈ 16.3 µM)
7 | CO[C@H]1/C=C/O[C@@]2(C)Oc3c(C)c(O)c4c(=O)c(c5oc6cc(N7CCN(CC(C)C)CC7)cc(O)c6nc-5c4c3C2=O)NC(=O)/C(C)=C\C=C\[C@H](C)[C@H](O)[C@@H](C)[C@@H](O)[C@@H](C)[C@H](OC(C)=O)[C@@H]1C [RIFALAZIL] | 0.004 (≈ 0.00425 µM) | 2 (≈ 2.13 µM) | 32 (≈ 34 µM)
8 | CO[C@H]1/C=C/O[C@@]2(C)Oc3c(C)c(O)c4c(=O)c(c5oc6cc(N7CCN(CC(C)C)CC7)cc(C)c6nc-5c4c3/C2=N/O)NC(=O)/C(C)=C\C=C\[C@H](C)[C@H](O)[C@@H](C)[C@@H](O)[C@@H](C)[C@H](OC(C)=O)[C@@H]1C | 0.008 (≈ 0.00838 µM) | 4 (≈ 4.19 µM) | > 64
9 | CO[C@H]1/C=C/O[C@@]2(C)Oc3c(C)c(O)c4c(=O)c(c5oc6cc(N7CCN(CC(C)C)CC7)ccc6nc-5c4c3/C2=N/O)NC(=O)/C(C)=C\C=C\[C@H](C)[C@H](O)[C@@H](C)[C@@H](O)[C@@H](C)[C@H](OC(C)=O)[C@@H]1C | 0.004 (≈ 0.00425 µM) | 0.5 (≈ 0.532 µM) | 8 (≈ 8.51 µM)
10 | CO[C@H]1/C=C/O[C@@]2(C)Oc3c(C)c(O)c4c(c3C2=O)C(=O)C=C(NC(=O)/C(C)=C\C=C\[C@H](C)[C@H](O)[C@@H](C)[C@@H](O)[C@@H](C)[C@H](OC(C)=O)[C@@H]1C)C4=O [RIFAMYCIN S] | 0.016 (≈ 0.023 µM) | 4 (≈ 5.75 µM) | > 64
11 | CO[C@H]1/C=C/O[C@@]2(C)Oc3c(C)c(O)c4c(=O)c(c5oc6cc(N7CCN(C)CC7)cc(O)c6nc-5c4c3/C2=N/O)NC(=O)/C(C)=C\C=C\[C@H](C)[C@H](O)[C@@H](C)[C@@H](O)[C@@H](C)[C@H](OC(C)=O)[C@@H]1C | 0.004 (≈ 0.00438 µM) | 1 (≈ 1.09 µM) | 32 (≈ 35 µM)
12 | CO[C@H]1/C=C/O[C@@]2(C)Oc3c(C)c(O)c4c(=O)c(c5oc6cc(N7CCN(C(C)C)CC7)ccc6nc-5c4c3/C2=N/O)NC(=O)/C(C)=C\C=C\[C@H](C)[C@H](O)[C@@H](C)[C@@H](O)[C@@H](C)[C@H](OC(C)=O)[C@@H]1C | 0.0005 (≈ 0.00054 µM) | 0.12 (≈ 0.13 µM) | 8 (≈ 8.64 µM)
13 | CO[C@H]1/C=C/O[C@@]2(C)Oc3c(C)c(O)c4c(=O)c(c5oc6cc(N7CCN(C)CC7)cc(C)c6nc-5c4c3/C2=N/O)NC(=O)/C(C)=C\C=C\[C@H](C)[C@H](O)[C@@H](C)[C@@H](O)[C@@H](C)[C@H](OC(C)=O)[C@@H]1C | 0.004 (≈ 0.00439 µM) | 1 (≈ 1.1 µM) | 16 (≈ 17.5 µM)
14 | CO[C@H]1/C=C/O[C@@]2(C)Oc3c(C)c(O)c4c(=O)c(c5oc6cc(N7CCN(CC8CCCCC8)CC7)cc(O)c6nc-5c4c3/C2=N/O)NC(=O)/C(C)=C\C=C\[C@H](C)[C@H](O)[C@@H](C)[C@@H](O)[C@@H](C)[C@H](OC(C)=O)[C@@H]1C | 0.008 (≈ 0.00803 µM) | 8 (≈ 8.03 µM) | 8 (≈ 8.03 µM)
15 | CO[C@H]1/C=C/O[C@@]2(C)Oc3c(C)c(O)c4c(=O)c(c5oc6cc(N7CCN(CC8CCN(C)CC8)CC7)cc(O)c6nc-5c4c3/C2=N/O)NC(=O)/C(C)=C\C=C\[C@H](C)[C@H](O)[C@@H](C)[C@@H](O)[C@@H](C)[C@H](OC(C)=O)[C@@H]1C | 0.13 (≈ 0.129 µM) | 4 (≈ 3.96 µM) | 32 (≈ 31.6 µM)
16 | CCN1CCN(c2cc(O)c3nc4c5c6c7c(C)c(O)c5c(=O)c(c-4oc3c2)NC(=O)/C(C)=C\C=C\[C@H](C)[C@H](O)[C@@H](C)[C@@H](O)[C@@H](C)[C@H](OC(C)=O)[C@H](C)[C@@H](OC)/C=C/O[C@@](C)(O7)/C6=N\O)CC1 | 0.008 (≈ 0.00862 µM) | 2 (≈ 2.16 µM) | 32 (≈ 34.5 µM)
17 | CO[C@H]1/C=C/O[C@@]2(C)Oc3c(C)c(O)c4c(O)c(c(/C=N/N5CCN(C)CC5)c(O)c4c3C2=O)NC(=O)/C(C)=C\C=C\[C@H](C)[C@H](O)[C@@H](C)[C@@H](O)[C@@H](C)[C@H](OC(C)=O)[C@@H]1C [RIFAMPIN] | 0.008 (≈ 0.00972 µM) | 16 (≈ 19.4 µM) | > 64
